Data reported in patent US10154673B2, “Method of removing lactose from a solution” (Stellenbosch University, priority 2014, dated 2018).

What was measured:
[1] = Adsorption of β-gal onto Dynabeads (HIPD), BCA protein determination; assay type: binding; settings: room temperature, optimal concentration
Method: To determine the amount (μg) of β-gal that was bound to Dynabeads® (HIPD), a BCA protein assay was performed according to the manufacturer's protocol. A standard curve with BSA was established in a range from 0 to 2 mg/ml. The analysis was performed at 540 nm.
A dilution series of purified β-gal wildtype and E537D mutant was prepared in a concentration range from 0 to 0.4 mg/ml. The dilution series was incubated with the beads (25 μl) for 10 min at 25° C. according to the manufacturer's protocol to ensure optimal adsorption of β-gal onto the beads. The beads were subsequently separated from the solution with a magnet and the supernatant was removed and analysed as described immediately above. The beads were then washed three times in dialysis buffer and the supernatant of the wash steps were also analysed for protein content.
The experimental procedure described above was repeated at 4 and 37° C.
Purified β-gal (wildtype and E537D mutant), was incubated with the beads (25 μl) at room temperature and optimal concentration to ensure maximum binding. The supernatant was removed from the solution at regular time intervals for 10 min. The collected fractions were assayed for protein content as described above. Analysis of β-gal bound to the beads took place with SDS-PAGE and Western blot analyses as outlined above.

[2] = Competitive activity assay (lactose as inhibitor, ONPG as substrate); assay type: biochemical; settings: for Vmax: ONPG with lactose 6, 16 and 60 mM as competitive inhibitor; for Ki: competitive inhibition by lactose, ONPG as substrate
Method: The protocol for the above activity assay was repeated, but with the addition of lactose as an inhibitor. Lactose was added to final concentration of 6, 16 and 60 mM respectively.
The assay for the activity of β-gal, with lactose as substrate, is relatively complex and generally requires the use of HPLC. It was therefore decided to use a competitive activity assay instead. Lactose was therefore added together with ONPG to determine if the expressed enzymes did have an affinity for the natural substrate. Lactose would compete for the active site with ONPG and therefore the greater the inhibition the higher the affinity of lactose for that particular active site.
The results obtained were analysed with the aid of Michaelis Menten plots and the Ki values for lactose were determined using Graphpad Prism® version 5 for Windows, Graphpad Software, La Jolla Calif. USA.

[3] = ONPG activity assay of purified free β-gal; assay type: biochemical; settings: for Vmax / Km: free enzyme
Method: (§1) Purified β-gal was assayed using a colorimetric activity assay. Both enzymes were assayed at varying substrate concentrations. The assay took place in phosphate buffer (93 mM Sodium phosphate, 1 mM MgCl2, 112 mM β-mercaptoethanol, pH 7.3) with varying amounts of substrate concentration. The assay was performed in a BioTek® PowerWave 340 spectrophotometer at 37° C. for 5 min with a reading taken every 5 s. The buffers were preincubated at 37° C. for 30 min prior to the assay.
The activity needed to be determined for both the wildtype and E537D mutant β-gal prepared for this study, since the addition of the His-tag could influence enzyme activity. The activity of β-gal was determined using the ONPG activity assay. The kinetic parameters (Km and Vmax) were determined using the Michaelis Menten equation and Graphpad Prism® version 5 software for Windows, Graphpad Software, La Jolla Calif. USA.

[4] = Radioactive lactose binding assay (scintillation counting); settings: 0.2 nmol β-gal/mg beads, 0.2 nmol 14C lactose, 5 min
Method: Immobilised β-gal (Wildtype and E537D mutant) (0.2 nmol β-gal/mg beads) was incubated with 0.2 nmol ^14C lactose in buffer (500 mM NaPO4, 300 mM NaCl, 5 mM sodium metabisulphate, 0.2% tween20, pH 8) for 5 min. The immobilised β-gal was then removed from the ^14C lactose solution with a magnet. The original 0.2 nmol C14 solution and the residual supernatant from the binding experiment were analysed with a scintillation counter.

[5] = Partition HPLC analysis of the 14C lactose binding assay; settings: for hydrolysis of lactose during the binding experiment: binding assay supernatant, glucose peak at 4 min
Method: […] The immobilised β-gal was then removed from the ^14C lactose solution with a magnet. The original 0.2 nmol C14 solution and the residual supernatant from the binding experiment were analysed with a scintillation counter.
All HPLC analyses were carried out using a Carbohydrate Analysis column (Waters (WAT084038)) and a Radiomatic “Flo-one beta” A-100 radioactive flow detector at ambient temperature. An isochratic mixture of 20:80 water:acetonitrile was used as mobile phase at a flow rate of 2 ml/min. Scintillation fluid was pumped at 6 ml/min for radioactive detection. Retention times of ^14C glucose and ^14C lactose standards were determined separately. This was followed by analysis of the residual supernatant and original ^14C lactose solution from the lactose binding assay.

[6] = ONPG activity assay of immobilised wildtype β-gal; assay type: biochemical; settings: immobilised on Dynabeads, ONPG as substrate
Method: as §1
70 μg β-gal (both E537D mutant and wildtype) were incubated for 10 min at 25° C. on a Vortex Genie 2 mixer (Healthcare technologies, South Africa) with 25 μl Dyanbeads® (HIPD). The immobilised β-gal was collected with the use of a magnet and the residual supernatant was removed for protein analysis. The beads were then washed three times and the wash supernatant was also kept and analysed for protein content.
The activity of the immobilized wildtype β-gal was determined with an ONPG activity assay as described earlier.

Substance | incubation time for maximum adsorption [1] | Vmax [2] | Ki [2] | activity lower/slower than the wildtype β-gal ([3]; ONPG activity, Vmax ratio) | Vmax ([3]; ONPG as substrate (FIG. 19 B legend)) | Km ([3]; ONPG as substrate, 37° C.) | Vmax ([3]; ONPG as substrate, 37° C.) | percentage binding of 14C lactose from solution [4] | hydrolysis of lactose during the binding experiment [5] | hydrolysis of lactose to glucose ([5]; incubation 20 min) | hydrolysis of lactose to glucose ([5]; incubation an hour (60 min)) | hydrolysis of lactose to glucose ([5]; incubation three hours) | percentage binding of 14C lactose from solution ([4]; listed as immobilised wildtype enzyme) | Km [6] | Vmax [6] | Vmax ([3]; ONPG as substrate)
E537D mutant: N-terminal His-tagged E. coli β-galactosidase with Glu537 replaced by Asp | 5 min | 2 µmol/min/mg | 19 mM | 115 × | 2 μmol/min/protein | 270 µM | 2 μmol/min/mg protein |  |  |  |  |  |  |  |  | 
immobilised E537D mutant β-gal: His-tagged E537D mutant β-gal immobilised on Dynabeads (HIPD) cobalt magnetic beads |  |  |  |  |  |  |  | approximately 15% | the lactose had not been hydrolysed | relatively small glucose peak appeared | glucose peak had increased significantly | majority of the substrate had been converted to glucose |  |  |  | 
immobilised wildtype β-gal: His-tagged wildtype β-gal immobilised on Dynabeads (HIPD) cobalt magnetic beads |  |  |  |  |  |  |  | not able to bind lactose | hydrolysed the lactose completely |  |  |  | approximately 2% | 1.53 mM | 135 µmol/min/mg | 
wildtype β-gal: N-terminal His-tagged wildtype E. coli β-galactosidase (lacZ product), expressed and IMAC purified [reference compound] | 5 min | 230 µmol/min/mg | 12.4 mM |  |  | 220 µM | 230 μmol/min/mg protein |  |  |  |  |  |  |  |  | 230 µmol/min/mg
